Laboratory results taken from ChEMBL document CHEMBL1909046, “DrugMatrix in vitro pharmacology data”.

Columns and labels:
[1] = DRUGMATRIX: Calcium Channel Type L, Benzothiazepine radioligand binding (ligand: [3H] Diltiazem); assay type: cell membranes, Rattus norvegicus, Wistar, Brain, Membrane; details: Not Active = under 50% inhibition at 10 µM
[2] = target: C-C chemokine receptor type 2 (Homo sapiens, UniProt P41597); assay type: cell membranes, Membrane; details: cho-k1; note: in other assays of this panel Not Active means under 50% inhibition at 10 µM
[3] = DRUGMATRIX: Imidazoline I2, Central radioligand binding (ligand: [3H] Idazoxan); assay type: cell membranes, Rattus norvegicus, Wistar, Cerebral cortex, Membrane; details: Not Active = under 50% inhibition at 10 µM
Melanocortin receptor 3 = Melanocortin receptor 3 (Homo sapiens, UniProt P41968); assay type: cell membranes, HEK293, Membrane; details: hek293; note: in other assays of this panel Not Active means under 50% inhibition at 10 µM
[4] = target: Tyrosine-protein kinase Lck (Homo sapiens, UniProt P06239); assay: DRUGMATRIX: Protein Tyrosine Kinase, LCK enzyme inhibition (substrate: Poly(Glu:Tyr)); assay type: cell-based, Insect cells; details: Not Active = under 50% inhibition at 10 µM
Adenosine receptor A1 = target: T1, Adenosine receptor A1 (Homo sapiens, UniProt P30542); assay type: cell membranes, CHO, Membrane; details: cho;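 note: radioligand binding assay at the adenosine A1 receptor, with DPCPX serving as the labelled ligand; in other assays of this panel Not Active means under 50% inhibition at 10 µM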
T1 sequence (P30542 whole entry): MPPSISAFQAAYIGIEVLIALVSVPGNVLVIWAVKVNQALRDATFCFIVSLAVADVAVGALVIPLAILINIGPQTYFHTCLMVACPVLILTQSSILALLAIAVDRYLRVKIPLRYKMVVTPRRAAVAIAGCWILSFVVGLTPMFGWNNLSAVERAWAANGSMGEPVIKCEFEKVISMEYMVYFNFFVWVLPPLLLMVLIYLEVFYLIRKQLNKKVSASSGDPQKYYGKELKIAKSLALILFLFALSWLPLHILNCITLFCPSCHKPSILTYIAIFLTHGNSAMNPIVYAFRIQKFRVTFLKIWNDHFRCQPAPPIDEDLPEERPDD

Sequence of C-C chemokine receptor type 2 (P41597 whole entry): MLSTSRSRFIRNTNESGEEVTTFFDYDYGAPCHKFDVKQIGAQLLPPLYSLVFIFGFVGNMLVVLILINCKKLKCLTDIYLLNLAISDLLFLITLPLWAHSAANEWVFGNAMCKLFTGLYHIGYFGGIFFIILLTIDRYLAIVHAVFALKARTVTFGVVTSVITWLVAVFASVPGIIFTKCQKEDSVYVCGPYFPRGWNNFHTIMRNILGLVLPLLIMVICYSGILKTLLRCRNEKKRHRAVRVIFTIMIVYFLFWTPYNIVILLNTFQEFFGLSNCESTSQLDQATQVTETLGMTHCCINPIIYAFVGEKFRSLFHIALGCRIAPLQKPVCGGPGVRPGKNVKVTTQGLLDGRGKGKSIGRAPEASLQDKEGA
Sequence of Melanocortin receptor 3 (P41968 whole entry): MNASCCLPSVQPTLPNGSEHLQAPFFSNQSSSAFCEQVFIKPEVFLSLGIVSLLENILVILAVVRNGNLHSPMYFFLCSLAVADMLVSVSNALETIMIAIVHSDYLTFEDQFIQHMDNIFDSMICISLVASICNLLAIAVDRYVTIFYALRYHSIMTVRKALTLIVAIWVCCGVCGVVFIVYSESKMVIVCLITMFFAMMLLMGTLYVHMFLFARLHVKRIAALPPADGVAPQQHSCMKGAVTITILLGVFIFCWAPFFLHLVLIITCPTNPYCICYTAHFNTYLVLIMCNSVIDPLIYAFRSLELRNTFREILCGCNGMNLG
Sequence of Tyrosine-protein kinase Lck (P06239 whole entry): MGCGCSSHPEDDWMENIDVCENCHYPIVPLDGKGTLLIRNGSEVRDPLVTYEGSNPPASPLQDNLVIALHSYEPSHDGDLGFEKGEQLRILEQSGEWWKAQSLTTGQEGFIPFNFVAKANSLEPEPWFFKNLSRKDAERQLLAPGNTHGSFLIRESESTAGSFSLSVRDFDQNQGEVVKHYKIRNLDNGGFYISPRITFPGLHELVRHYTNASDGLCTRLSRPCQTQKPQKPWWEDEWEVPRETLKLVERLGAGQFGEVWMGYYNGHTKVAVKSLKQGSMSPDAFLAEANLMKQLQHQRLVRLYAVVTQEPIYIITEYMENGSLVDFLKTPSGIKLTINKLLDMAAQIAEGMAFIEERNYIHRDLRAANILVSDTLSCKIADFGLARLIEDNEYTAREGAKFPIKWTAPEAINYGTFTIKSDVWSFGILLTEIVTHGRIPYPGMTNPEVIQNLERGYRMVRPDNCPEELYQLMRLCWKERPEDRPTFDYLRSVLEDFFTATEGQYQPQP

Compound	IC50 [1]	Ki [1]	IC50 [2]	IC50 [3]	Ki [3]	IC50 (Melanocortin receptor 3)	IC50 ([4]; insect cells)	IC50 (Adenosine receptor A1)	IC50 ([4]; read-out: IC50) [nM]	Ki [2]	Ki (Melanocortin receptor 3)	Ki ([4]; insect cells)	Ki (Adenosine receptor A1)	IC50 ([1]; read-out: IC50) [nM]	Ki ([1]; read-out: Ki) [nM]	IC50 ([3]; read-out: IC50) [nM]	Ki ([3]; read-out: Ki) [nM]
O=C(Oc1ccccc1C(=O)O)c1ccccc1O [SALSALATE]	Not Active	Not Active	Not Active	Not Active	Not Active	Not Active	Not Active	Not Active	–	–	–	–	–	–	–	–	–
CNC1(c2ccccc2Cl)CCCCC1=O (configuration not stated) [KETAMINE]	Not Active	Not Active	Not Active	Not Active	Not Active	Not Active	Not Active	Not Active	–	–	–	–	–	–	–	–	–
Fc1ccc(C(c2ccc(F)cc2)N2CCN(C/C=C/c3ccccc3)CC2)cc1 [FLUNARIZINE]	–	–	Not Active	–	–	Not Active	Not Active	Not Active	–	–	–	–	–	–	–	–	–
CN[C@H]1CC[C@@H](c2ccc(Cl)c(Cl)c2)c2ccccc21 [SERTRALINE]	–	–	Not Active	–	–	Not Active	Not Active	Not Active	–	–	–	–	–	–	–	–	–
O=C(Nc1ccc(Br)cc1)c1cc(Br)cc(Br)c1O [TRIBROMSALAN]	Not Active	Not Active	Not Active	Not Active	Not Active	Not Active	–	Not Active	5020	–	–	–	–	–	–	–	–
CC(C)NCC(O)c1ccc(O)c(O)c1 (configuration not stated) [ISOPROTERENOL]	Not Active	Not Active	Not Active	Not Active	Not Active	Not Active	Not Active	Not Active	–	–	–	–	–	–	–	–	–
Cc1cccc(C)c1OCC(C)N (configuration not stated) [MEXILETINE]	Not Active	Not Active	Not Active	Not Active	Not Active	Not Active	Not Active	Not Active	–	–	–	–	–	–	–	–	–
MANGANESE CHLORIDE ANHYDROUS	Not Active	Not Active	Not Active	Not Active	Not Active	Not Active	Not Active	Not Active	–	Not Active	Not Active	Not Active	Not Active	–	–	–	–
CCN(CC)CCNC(=O)c1cc(S(C)(=O)=O)ccc1OC [TIAPRIDE]	Not Active	Not Active	Not Active	Not Active	Not Active	Not Active	Not Active	Not Active	–	–	–	–	–	–	–	–	–
Clc1ccc(COC(Cn2ccnc2)c2ccc(Cl)cc2Cl)cc1 (configuration not stated) [ECONAZOLE]	–	–	Not Active	–	–	–	Not Active	–	–	–	–	–	–	–	–	–	–
COc1c2occc2cc2ccc(=O)oc12 [METHOXSALEN]	Not Active	Not Active	Not Active	Not Active	Not Active	Not Active	Not Active	Not Active	–	–	–	–	–	–	–	–	–
O.O.O.O.O.O.[Cl-].[Cl-].[Sr+2] [STRONTIUM CHLORIDE HEXAHYDRATE]	Not Active	Not Active	Not Active	Not Active	Not Active	Not Active	Not Active	Not Active	–	–	–	–	–	–	–	–	–
COc1ccc(CCN(C)CCCC(C#N)(c2ccc(OC)c(OC)c2)C(C)C)cc1OC (configuration not stated)	–	–	Not Active	–	–	Not Active	Not Active	Not Active	–	–	–	–	–	14	12	5520	3680
CCN(CC)CCOc1ccc(/C(=C(/Cl)c2ccccc2)c2ccccc2)cc1 [ENCLOMIPHENE]	–	–	Not Active	–	–	Not Active	Not Active	Not Active	–	–	–	–	–	–	–	–	–
Clc1ccccc1CN1CCc2sccc2C1 [TICLOPIDINE]	Not Active	Not Active	Not Active	–	–	Not Active	Not Active	Not Active	–	–	–	–	–	–	–	2240	1490
CC(C)Oc1ccc2c(=O)c(-c3ccccc3)coc2c1 [IPRIFLAVONE]	Not Active	Not Active	Not Active	Not Active	Not Active	Not Active	Not Active	Not Active	–	–	–	–	–	–	–	–	–
COc1cc2nc(N3CCN(C(=O)C4CCCO4)CC3)nc(N)c2cc1OC (configuration not stated) [TERAZOSIN]	Not Active	Not Active	Not Active	–	–	Not Active	Not Active	Not Active	–	–	–	–	–	–	–	1270	846
